Values quoted from earlier work, collected in patent publication US20120238571A1, “INDAZOLE DERIVATIVES AS PI 3-KINASE” (Glaxo Group Limited, priority 2009, published 2012).
Like-named read-outs stand apart in the source and are kept apart here.

Assays:
CK2 protein kinase = CK2 protein kinase (Homo sapiens, UniProt P68400)
CK2 protein kinase, sequence (P68400 whole entry): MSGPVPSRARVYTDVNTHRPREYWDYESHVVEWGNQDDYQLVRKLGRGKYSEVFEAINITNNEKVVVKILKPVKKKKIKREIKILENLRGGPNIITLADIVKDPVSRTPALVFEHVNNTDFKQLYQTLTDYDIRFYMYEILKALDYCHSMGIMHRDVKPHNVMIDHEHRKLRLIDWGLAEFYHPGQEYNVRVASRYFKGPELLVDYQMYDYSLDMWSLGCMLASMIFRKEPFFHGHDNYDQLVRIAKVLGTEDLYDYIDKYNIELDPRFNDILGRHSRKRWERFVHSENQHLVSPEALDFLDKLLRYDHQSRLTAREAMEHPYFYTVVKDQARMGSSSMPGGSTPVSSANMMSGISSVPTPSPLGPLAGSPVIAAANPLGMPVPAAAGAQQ

In the case of `COC[C@H]1OC(=O)c2coc3c2[C@@]1(C)C1=C(C3=O)[C@@H]2CCC(=O)[C@@]2(C)C[C@H]1OC(C)=O` [wortmannin], the IC50 (Class I PI3-kinases; each of the four Class I PI3-kinases, read-out: IC50 against each of the various Class I PI3-kinases) is given as 0.001 to 0.01 µM.

In the case of `O=c1cc(N2CCOCC2)oc2c(-c3ccccc3)cccc12` [LY294002], the IC50 (Class I PI3-kinases; each of the Class I PI3-kinases, Fruman et al. 1998, read-out: IC50 against each of these PI3-kinases) is listed as 15 to 20 µM and the IC50 (CK2 protein kinase) is listed as 5 to 10 µM.
